Patent US9695164B2, “Crystalline forms of pyrroloquinoline quinone disodium salt” (Zhucheng Haotian Pharm Co., Ltd., priority 2012, dated 2017)
“Also recorded” adds a separate entry of the source. Counter-ions that a name gives are not always drawn.

What was measured:
Type in all cases: physicochemical
[1] = Hygroscopic analysis (DVS); conditions: 25° C.; for moisture absorption / hygroscopicity compared among crystal forms (overlay of DVS graphs) / hygroscopicity (in words): disodium salt; for hygroscopicity compared among crystal forms (overlay of DVS graphs): at 80% RH; for variation of hygroscopicity: conventional storage environment of 40-80 RH
Procedure: 4. Hygroscopic Analysis As indicated by DVS (FIG. 4), crystalline Form A absorbs 1.6% of moisture at 40% RH, 2.3% at 65% RH, and 2.8% at 80% RH. […] Instrument model: SMS DVS Intrinsic, 0-95% RH, Temperature: 25° C. As described above, crystal E was prepared according to Example 1 in patent literature 1. The hygroscopic analysis graph of crystal E (shown in FIG. 21) was obtained using the DVS test method and conditions used in the foregoing examples, and its hygroscopic property was compared with those of crystals A and B according to the invention (the results are shown in FIG. 22).

[2] = Solvent content (thermogravimetric analysis, Table 3); conditions: disodium salt
Procedure: 2. Thermogravimetric Analysis
(the theoretical weight loss of a water molecule is 4.6%). It is possibly a hydrate. The peak temperature of decomposition is 312.5° C.
Instrument model: Netzsch TG 209F3
Temperature range: 30-400° C.
Protection gas: 15 mL/min

[3] = Crystal form stability (Table 3); conditions: disodium salt
[4] = Approximate solubility of PQQ disodium salt in various solvents by gravimetric analysis; conditions: for Solubility @ 25: 25° C.; for Solubility @ 50: 50° C.
Procedure: Before preparation of the crystals, conventional methods may be employed to measure the solubility of the PQQ disodium salt in different solvents, and subsequently appropriate solvent(s) may be selected to prepare the crystals of the invention. For example, the following method may be used to measure the solubility of the PQQ disodium salt in various solvents:
(1) At 25° C. and 50° C. respectively, about 25 mg PQQ disodium salt is stirred in 1 ml solvent to equilibrium for at least 24 h, and subsequently the solution is filtered, wherein the solvent in the liquid part is volatized under vacuum completely. The approximate solubility of the raw material in the solvent is determined by gravimetric analysis.
Gravimetric analysis: a volume (generally 0.5 mL) of the filtrate is weighed accurately and placed in a vessel which has already been dried and weighed, wherein the weight of the vessel is indicated as Mhollow. Subsequently, the total weight of the vessel and the filtrate is measured and indicated as M0. Then, the weight of the filtrate is M0−Mhollow. After the solvent is volatized completely under vacuum, the total weight is measured accurately again (indicated as M1). Then, the mass of the precipitated solid is M1−Mhollow, and the mass of the solvent is M0−M1. As such, the approximate solubility of the raw material in this solvent is: X(g)=[(M1−Mhollow)/(M0−M1)]×100(g)

[5] = solvent acetonitrile:methyl isobutyl ketone (1.1)
[6] = solvent acetonitrile:methyl tert-butyl ether (1:1), first line (r31)
[7] = solvent acetonitrile:methyl tert-butyl ether (1:1), second line (r33)
[8] = solvent acetonitrile:toluene (1:1)
[9] = solvent acetonitrile:water (1:1)
[10] = solvent methyl tert-butyl ether
[11] = solvent tetrahydrofuran:water (1:1)

## O=C(O)c1cc(C(=O)O)c2c(n1)C(=O)C(=O)c1cc(C(=O)O)[nH]c1-2 [crystalline Form A, pyrroloquinoline quinone disodium salt]
[1]; 40% RH
  moisture absorption: 1.6%
[1]
  hygroscopicity compared among crystal forms (overlay of DVS graphs): smallest hygroscopicity
  variation of hygroscopicity: less than 2%
  hygroscopicity (in words): only slightly hygroscopic
[2]
  Solvent content (%): 7.4%
[3]
  Crystal form stability: Stable

## O=C(O)c1cc(C(=O)O)c2c(n1)C(=O)C(=O)c1cc(C(=O)O)[nH]c1-2 [crystal E, pyrroloquinoline quinone disodium salt]
[1]; 40% RH
  moisture absorption: 11.8%
[1]; 65% RH
  moisture absorption: 13.0%
[1]; 80% RH
  moisture absorption: 13.6%
[1]
  hygroscopicity compared among crystal forms (overlay of DVS graphs): largest hygroscopicity
  variation of hygroscopicity: less than 2%
  hygroscopicity (in words): rather hygroscopic; also recorded: slightly hygroscopic

## O=C(O)c1cc(C(=O)O)c2c(n1)C(=O)C(=O)c1cc(C(=O)O)[nH]c1-2 [crystalline Form C, pyrroloquinoline quinone disodium salt]
[1]; 40% RH
  moisture absorption: 7.8%
[1]
  hygroscopicity compared among crystal forms (overlay of DVS graphs): largest hygroscopicity
  hygroscopicity (in words): highly hygroscopic
[2]
  Solvent content (%): 11.4%

## O=C(O)c1cc(C(=O)O)c2c(n1)C(=O)C(=O)c1cc(C(=O)O)[nH]c1-2 [PQQ disodium salt, pyrroloquinoline quinone disodium salt]
[4]; solvent acetone:water (1:1)
  Solubility @ 25: 0.53 g/100 g
  Solubility @ 50: 1.36 g/100 g
[4]; solvent acetone
  Solubility @ 25: 0.13 g/100 g
  Solubility @ 50: 0.05 g/100 g
[4]; [5]
  Solubility @ 25: 0.09 g/100 g
  Solubility @ 50: 0.04 g/100 g
[4]; [6]
  Solubility @ 25: 0.10 g/100 g
  Solubility @ 50: 0.04 g/100 g
[4]; [7]
  Solubility @ 25: 0.03 g/100 g
  Solubility @ 50: 0.02 g/100 g
[4]; [8]
  Solubility @ 25: 0.04 g/100 g
  Solubility @ 50: 0.00 g/100 g
[4]; [9]
  Solubility @ 25: 0.22 g/100 g
  Solubility @ 50: 0.14 g/100 g
[4]; solvent acetonitrile
  Solubility @ 25: 0.01 g/100 g
  Solubility @ 50: 0.05 g/100 g
[4]; solvent chloroform
  Solubility @ 25: 0.02 g/100 g
  Solubility @ 50: 0.03 g/100 g
[4]; solvent dichloromethane
  Solubility @ 25: 0.02 g/100 g
  Solubility @ 50: 0.04 g/100 g
[4]; solvent ethanol:water (1:1)
  Solubility @ 25: 0.10 g/100 g
  Solubility @ 50: 0.10 g/100 g
[4]; solvent ethanol
  Solubility @ 25: 0.08 g/100 g
  Solubility @ 50: 0.11 g/100 g
[4]; solvent ethyl acetate
  Solubility @ 25: 0.11 g/100 g
  Solubility @ 50: 0.09 g/100 g
[4]; solvent ethyl ether
  Solubility @ 25: 0.06 g/100 g
  Solubility @ 50: 0.01 g/100 g
[4]; solvent heptane
  Solubility @ 25: 0.02 g/100 g
  Solubility @ 50: 0.11 g/100 g
[4]; solvent hexane
  Solubility @ 25: 0.06 g/100 g
  Solubility @ 50: 0.02 g/100 g
[4]; solvent isopentanol
  Solubility @ 25: 0.02 g/100 g
  Solubility @ 50: 0.00 g/100 g
[4]; solvent isopropanol
  Solubility @ 25: 0.09 g/100 g
  Solubility @ 50: 0.08 g/100 g
[4]; solvent isopropyl acetate
  Solubility @ 25: 0.36 g/100 g
  Solubility @ 50: 0.03 g/100 g
[4]; solvent methanol:water (1:1)
  Solubility @ 25: 0.15 g/100 g
  Solubility @ 50: 0.13 g/100 g
[4]; solvent methanol
  Solubility @ 25: 0.09 g/100 g
  Solubility @ 50: 0.11 g/100 g
[4]; solvent methyl ethyl ketone
  Solubility @ 25: 0.16 g/100 g
  Solubility @ 50: 0.06 g/100 g
[4]; solvent methyl isobutyl ketone
  Solubility @ 25: 0.05 g/100 g
  Solubility @ 50: 0.07 g/100 g
[4]; [10]
  Solubility @ 25: 0.05 g/100 g
  Solubility @ 50: 0.03 g/100 g
[4]; solvent nitromethane
  Solubility @ 25: 0.01 g/100 g
  Solubility @ 50: 0.02 g/100 g
[4]; [11]
  Solubility @ 25: 0.24 g/100 g
  Solubility @ 50: 0.29 g/100 g
[4]; solvent tetrahydrofuran
  Solubility @ 25: 0.15 g/100 g
  Solubility @ 50: 0.24 g/100 g
[4]; solvent toluene
  Solubility @ 25: 0.02 g/100 g
  Solubility @ 50: 0.05 g/100 g
[4]; solvent water
  Solubility @ 25: 0.37 g/100 g
  Solubility @ 50: 0.89 g/100 g

## O=C(O)c1cc(C(=O)O)c2c(n1)C(=O)C(=O)c1cc(C(=O)O)[nH]c1-2 [crystalline Form B, pyrroloquinoline quinone disodium salt]
[1]; 40% RH
  moisture absorption: 7.3%
[1]
  hygroscopicity compared among crystal forms (overlay of DVS graphs): medium hygroscopicity; also recorded: relatively large hygroscopicity
[2]
  Solvent content (%): 12.2%
[3]
  Crystal form stability: Stable
